Patent EP0335545B2, “Pharmaceutical formulations for parenteral use” (UNIVERSITY OF FLORIDA, priority 1988, dated 1989)
In brackets after ≈: the same amount, converted by molar mass. Read-outs that look alike come from different tables or passages of the source.

Key:
[1] = Maximum concentrations of selected CDS in varying concentrations of selected cyclodextrins; assay type: physicochemical
Procedure: In further testing, maximum concentrations of selected CDS in varying concentrations of selected cyclodextrins were determined. The concentration of E2-CDS (mg/mL) was as follows: […]

physchem = assay type: physicochemical
Procedure: (§1) The retention time was 5.2 min. Other compounds were assayed spectrophotometrically.

[2] = Lung and brain concentrations in male rats after i.v. E2-CDS in DMSO or as HPCD complex (HPLC with pre-column enrichment); assay type: in vivo, Sprague-Dawley rats
Source text: The loss of sensitivity resulting from the dilution step in the procedure optimal for pretreatment of biological samples (see sample preparation without extraction) could be compensated for by developing an HPLC system that allows injection of large volumes. A suitable HPLC-method which has been described in the literature [Roth et al, J. Chromatogr. 222: 13-22 (1981)] is based on alternating pre-column sample enrichment. The procedure used herein was as follows: The sample containing the drug is injected with a first pump A, delivering pure water, onto one of two pre-columns, which are alternatingly connected with the injection system by two pneumatically driven valves. Provided a certain lipophilicity, the drug is retained and concentrated on the pre-column, while accompanying water soluble-co-products like proteins are being washed out as long as water is pumped through the pre-column. This allows the direct injection of body fluids. After a certain enrichment time (6 and 8 minutes), simultaneous rotation of the two valves is induced, causing pre-column 1, where the injected drug has been absorbed, to be switched to the solvent stream of the second pump, B. Also, at this point, the recording integrator is started. Pump B delivers the mobile phase, necessary for separation and chromatography, and backflushes the sample from pre-column 1 onto the analytical column. Parallel to this process, pre-column 2 is switched to the water stream of pump A so that a sample can be injected and enriched while the previous one is being eluted (alternating mode). Volumes up to 1800 µL can be injected due to the concentration effect of the enrichment phase.
This system was applicable to the quantification of E2, E2-CDS and E2-Quat. The mobile phase for E2-CDS was: Acetonitrile/water 80:20 at a flow rate of 1.8 mL/minute. Optimal peak shape and retention time for E2 and E2-Ouat were obtained with pump B delivering a mixture of acetonitrile/water 42:58 which contained 0.025 M/L sodium salt of 1-octanesulfonic acid and 0.003 M/L tetrabutylammonium phosphate. […]

[3] = 37°C
Procedure: In this procedure, 27.5 µL of a 5 x 10^-3 M solution of E2-CDS in acetonitrile was added to 2.75 mL of a solution containing 1 x 10^-4 M Fe(CN)6^-4, 0.06 M K^+, 0.001 M Fe(CN)6^-3. All solutions were made using water which had been boiled for 30 minutes and cooled while a stream of pyrogallol-scrubbed nitrogen passed through it. The E2-CDS was introduced via a syringe to the solution which was maintained at 37°C in a thermostated cell holder and contained in an anaerobic screw-top cuvette. […] For a given concentration of ferricyanide ions (6 x 10^-4 to 8 x 10^-3 M), the rate of disappearance of the E2-CDS was determined. This was done by calculating the decrease in the absorbance band at 360 nm (± 10 nm) subtracted from base line absorbance (500 ± 10 nm). A plot of the 1n [Abs] versus time gave a slope for the pseudo-first-order rate constant. This was done at several different ferricyanide ion concentrations. The obtained first-order rate constants were then plotted as a function of ferricyanide ion concentration generating a slope from which the second order rate constant (k0 s^-1 M^-1) was obtained. In examining the effect of 2-hydroxypropyl-β-cyclodextrin on the rate of E2-CDS oxidation, solutions containing the HPCD as well as those ions present in the first phase of the experiment were prepared. The second order constant was derived for each cyclodextrin concentration and a plot developed.

[4] = Aqueous solubility and stability of the E2-CDS-HPCD complex; assay type: physicochemical
Procedure: The E2-CDS-HPCD complex contains about 40 mg of E2-CDS/g and easily gives aqueous solutions containing 5 mg E2-CDS/mL at 20% w/v cyclodextrin. […] The halflife of E2-CDS in such a solution at room temperature in the dark is about 12.5 days (rate: 0.0554 ± 0.0047d^-1).

[5] = Preparation of solid freeze-dried HPCD complexes: degree of incorporation; assay type: physicochemical
Procedure: An excess of E2-CDS was added and the solution then was purged with helium. The resulting suspension was then sonicated for 30 minutes, filtered through a glass filter (ASTM 10-15M, Pyrex No. 36060) and freeze-dried overnight. Best results were obtained by hard-freezing the aqueous solution of the E2-CDS/HPCD complex for at least 10 hours before lyophilization. The degree of complex formation was determined by dissolving a small amount of the dry complex in methanol and then analyzing by high pressure liquid chromatography (HPLC).
An excess of E2-CDS or other CDS was added to a 50% w/w solution of HPCD. The suspension was sonicated for 30 minutes, filtered through 0.45 µm PVDF membranes and freeze-dried. The degree of incorporation was determined either spectrophotometrically or by HPLC. In some cases, the effect of solubilizing agents on the degree of incorporation was examined. This involved adding small amounts of polyoxyethylene 20 cetyl ether (Brij), polyoxyethylene sorbitan monooleate (Tween 80) or ethanol to the aqueous solution prior to lyophilization.
as §1
The solution was degassed and the suspension was sonicated for 30 minutes, after which it was filtered and the filtrate was lyophilized. The dried filtrate contained 65.6 mg testosterone propionate or 29.6 mg T-CDS1 per gram of cyclodextrin complex. Compounds were analyzed for decomposition by thin-layer chromatography and ultraviolet absorption.

[6] = 15 mg/kg in DMSO relative to 5 mg/kg as complex with HPCD in water, i.v., within the first hour

CN1C=CCC(C(=O)O[C@H]2CC[C@H]3[C@@H]4CCc5cc(O)ccc5[C@H]4CC[C@]23C)=C1 [Example E2-CDS, 3-Hydroxy-17β-[(1-methyl-1,4-dihydropyridin-3-yl)carbonyl]oxyestra-1,3,5(10)-triene]
solubility ([1]; 20% hebcd): 3090 µg/mL (≈ 7.85 mM) | solubility ([1]; 20% hpcd): 6730 µg/mL (≈ 17.1 mM) | solubility ([1]; 40% hebcd): 6070 µg/mL (≈ 15.4 mM) | solubility ([1]; 40% hpcd): 11900 µg/mL (≈ 30.2 mM) | solubility ([1]; 40% hpgcd): 4000 µg/mL (≈ 10.2 mM) | increase in incorporation with the lower ASDS material (physchem): 15% | increase in solubility over the solubility in water (physchem): 150,000 fold | slope of millimolarity of E2-CDS solubilized versus millimolarity of HPCD added (estimation of bulk stability of the complex) (physchem): 0.2 | solubility (physchem; 10 mm aqueous β-cyclodextrin, Maximum Solubility): 27 µg/mL (≈ 0.0686 mM) | solubility (physchem; 10 mm aqueous γ-cyclodextrin, Maximum Solubility): 22 µg/mL (≈ 0.0559 mM) | solubility (physchem; 50 mm aqueous α-cyclodextrin, Maximum Solubility): 5 µg/mL (≈ 0.0127 mM) | solubility (physchem; 62.5% w/v aqueous hpcd, Maximum Solubility): 30200 µg/mL (≈ 76.7 mM) | solubility (physchem; water, Maximum Solubility (solubility of E2-CDS in water)): 0.2 µg/mL (≈ 0.000508 mM) | solubility (physchem; water, water solubility): 0.2 µg/mL (≈ 0.000508 mM) | initial lung concentrations of E2-CDS, corrected for dose [2, 6]: more than ten-fold | initial lung concentrations of E2-Quat, corrected for dose [2, 6]: more than ten-fold | brain levels of E2-Quat, corrected for dose ([2]; after 1 hour, HPCD complex in water compared to DMSO): not significantly different | inhibition of second order rate of oxidation ([3]; 0.5% w/v cyclodextrin): 42% | inhibition of second order rate of oxidation ([3]; 1.0% w/v cyclodextrin): 60% | inhibition of second order rate of oxidation ([3]; 2% cyclodextrin): 81% | reduction in the second order rate of oxidation ([3]; 5-20% cyclodextrin): approximately 90% | rate (of degradation) ([4]; 5 mg E2-CDS/mL at 20% w/v cyclodextrin, room temperature in the dark): 0.0554 ± 0.0047 day⁻¹ | half-life ([4]; 20% w/v aqueous hpcd, 5 mg E2-CDS/mL at 20% w/v cyclodextrin, room temperature in the dark): ~12.5 days | increase in aqueous solubility by complexation ([4]; 20% w/v cyclodextrin versus water): 25,000 fold | stability of the solid complex [5]: stable as a dry powder | degree of complexation ([5]; 50% (w/w) HPCD, freeze-dried): 20 to 40 mg/g | upper limit for a stable complex ([5]; HPCD complex): approximately 40 mg/g | degree of incorporation ([5]; addition of Brij (0.7% w/w)): 189 mg/g | degree of incorporation after storage ([5]; addition of Brij (0.7% w/w), in 12 days): 42 mg/g | effect on degree of incorporation ([5]; addition of Tween 80 (0.8% w/w) or ethanol (10% v/v)): only modest effects | Amount of Drug in Dry Complex ([5]; freeze-dried complex from 50% w/w HPCD (ASDS 5.1)): 37 mg/g
